In patent publication US20230002357A1, “7-PYRIMIDINE-2-YL-OXY-INDAZOLE DERIVATIVES AND THEIR USE AS HERBICIDES” (SYNGENTA CROP PROTECTION AG, priority 2019, published 2023):

Legend:
Assay type in all cases: in vivo
Conditions in all cases: 250 g/ha, evaluated after 13 days
[1] = test system: Amaranthus retoflexus (AMARE); assay: Post-emergence Test, glasshouse, AMARE
How it was run: (§1)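 Glasshouse spray test with 1-day (pre-emergence) or 8-day (post-emergence) application timing; rate 250 g/ha unless stated otherwise. Visual percentage damage at 13 days, banded 1 (0-20%) to 5 (81-100%).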

ABUTH [2] = assay: Post-emergence Test, glasshouse, ABUTH
How it was run: as §1

Setaria faberi (SETFA) [3] = assay: Post-emergence Test, glasshouse, SETFA
How it was run: as §1

[4] = test system: Echinochloa crus-galli (ECHCG); assay: Post-emergence Test, glasshouse, ECHCG
How it was run: as §1

IPOHE [5] = assay: Post-emergence Test, glasshouse, IPOHE
How it was run: as §1

[6] = test system: Amaranthus retoflexus (AMARE); assay: Pre-emergence Test, glasshouse, AMARE
How it was run: as §1

ABUTH [7] = assay: Pre-emergence Test, glasshouse, ABUTH
How it was run: as §1

Setaria faberi (SETFA) [8] = assay: Pre-emergence Test, glasshouse, SETFA
How it was run: as §1

[9] = test system: Echinochloa crus-galli (ECHCG); assay: Pre-emergence Test, glasshouse, ECHCG
How it was run: as §1

IPOHE [10] = assay: Pre-emergence Test, glasshouse, IPOHE
How it was run: as §1

SMILES | percentage damage caused to the plant, five-point scale, AMARE [1] | percentage damage caused to the plant, five-point scale, ABUTH (ABUTH [2]) | percentage damage caused to the plant, five-point scale, SETFA (Setaria faberi (SETFA) [3]) | percentage damage caused to the plant, five-point scale, ECHCG [4] | percentage damage caused to the plant, five-point scale, IPOHE (IPOHE [5]) | percentage damage caused to the plant, five-point scale, AMARE [6] | percentage damage caused to the plant, five-point scale, ABUTH (ABUTH [7]) | percentage damage caused to the plant, five-point scale, SETFA (Setaria faberi (SETFA) [8]) | percentage damage caused to the plant, five-point scale, ECHCG [9] | percentage damage caused to the plant, five-point scale, IPOHE (IPOHE [10])
N#Cc1ccc2c(Cl)nn(CCCC(F)(F)F)c2c1Oc1ncc(Cl)cn1 [Compound 1.041, 3-chloro-7-(5-chloropyrimidin-2-yl)oxy-1-(4,4,4-trifluorobutyl)indazole-6-carbonitrile] | 1 (1=0-20%) | 1 (1=0-20%) | 1 (1=0-20%) | 1 (1=0-20%) | 1 (1=0-20%) | 1 (1=0-20%) | 1 (1=0-20%) | 1 (1=0-20%) | 1 (1=0-20%) | 1 (1=0-20%)
FC(F)(F)CCn1ncc2cccc(Oc3ncc(Cl)cn3)c21 [Compound 1.042] | 4 (4=61-80%) | 4 (4=61-80%) | 4 (4=61-80%) | 4 (4=61-80%) | 2 (2=21-40%) | 5 (5=81-100%) | 4 (4=61-80%) | 5 (5=81-100%) | 5 (5=81-100%) | 1 (1=0-20%)
Cc1ccc2c(Cl)nn(CCCC(F)(F)F)c2c1Oc1ncc(Cl)cn1 [Compound 1.043, 3-chloro-7-(5-chloropyrimidin-2-yl)oxy-6-methyl-1-(4,4,4-trifluorobutyl)indazole] | 4 (4=61-80%) | 3 (3=41-60%) | 3 (3=41-60%) | 3 (3=41-60%) | 4 (4=61-80%) | 5 (5=81-100%) | 1 (1=0-20%) | 4 (4=61-80%) | 3 (3=41-60%) | 1 (1=0-20%)
Cc1ccc2cnn(CCCC(F)(F)F)c2c1Oc1ncc(Cl)cn1 [Compound 1.044] | 1 (1=0-20%) | 1 (1=0-20%) | 1 (1=0-20%) | 1 (1=0-20%) | 1 (1=0-20%) | 2 (2=21-40%) | 1 (1=0-20%) | 3 (3=41-60%) | 3 (3=41-60%) | 1 (1=0-20%)
N#Cc1ccc2cnn(CCCC(F)(F)F)c2c1Oc1ncc(Cl)cn1 [Compound 1.046] | 2 (2=21-40%) | 2 (2=21-40%) | 1 (1=0-20%) | 1 (1=0-20%) | 1 (1=0-20%) | 1 (1=0-20%) | 2 (2=21-40%) | 1 (1=0-20%) | 1 (1=0-20%) | 1 (1=0-20%)
Fc1cnc(Oc2cccc3c(Cl)nn(CCCC(F)(F)F)c23)nc1 [Compound 1.047] | 5 (5=81-100%) | 5 (5=81-100%) | 4 (4=61-80%) | 5 (5=81-100%) | 5 (5=81-100%) | 5 (5=81-100%) | 5 (5=81-100%) | 5 (5=81-100%) | 5 (5=81-100%) | 3 (3=41-60%)
COc1cnc(Oc2cccc3c(Cl)nn(CCCC(F)(F)F)c23)nc1 [Compound 1.048] | 5 (5=81-100%) | 4 (4=61-80%) | 3 (3=41-60%) | 3 (3=41-60%) | 4 (4=61-80%) | 4 (4=61-80%) | 2 (2=21-40%) | 5 (5=81-100%) | 4 (4=61-80%) | 1 (1=0-20%)
Cc1cnc(Oc2cccc3c(Cl)nn(CCCC(F)(F)F)c23)nc1 [Compound 1.049] | 4 (4=61-80%) | 5 (5=81-100%) | 4 (4=61-80%) | 5 (5=81-100%) | 3 (3=41-60%) | 5 (5=81-100%) | 3 (3=41-60%) | 5 (5=81-100%) | 5 (5=81-100%) | 1 (1=0-20%)
FC(F)(F)CCCn1nnc2cc(Cl)cc(Oc3ncc(Cl)cn3)c21 [Compound 1.050] | 5 (5=81-100%) | 2 (2=21-40%) | 1 (1=0-20%) | 1 (1=0-20%) | 3 (3=41-60%) | 1 (1=0-20%) | 1 (1=0-20%) | 1 (1=0-20%) | 1 (1=0-20%) | 1 (1=0-20%)
FC(F)OCCn1nc(Cl)c2cccc(Oc3ncc(Cl)cn3)c21 [Compound 1.051] | 5 (5=81-100%) | 4 (4=61-80%) | 4 (4=61-80%) | 4 (4=61-80%) | 3 (3=41-60%) | 5 (5=81-100%) | 3 (3=41-60%) | 5 (5=81-100%) | 4 (4=61-80%) | 2 (2=21-40%)
